Assay results reported in ChEMBL document CHEMBL5236587, “Discovery of oxazoline enhancers of cellular progranulin release” (Bioorg Med Chem Lett, 2023).

Legend:
[1] = Induction of progranulin secretion in mouse BV-2 cells; assay type: functional, cell-based
[2] = Protein binding in human assessed as unbound fraction; assay type: ADME
[3] = target: Voltage-gated inwardly rectifying potassium channel KCNH2 (Homo sapiens, UniProt Q12809); experiment: Inhibition of human ERG; assay type: toxicity
[4] = Protein binding in mouse brain assessed as unbound fraction; assay type: ADME, tissue-based
[5] = Protein binding in mouse assessed as unbound fraction; assay type: ADME
[6] = Apparent permeability across apical to basolateral side in MDCK-MDR1 cells; assay type: ADME, cell-based, Canis lupus familiaris; conditions: dog
[7] = Efflux ratio of apparent permeability in MDCK-MDR1 cells; assay type: ADME, cell-based, Canis lupus familiaris; conditions: dog
[8] = Volume of distribution at steady state in mouse at 10 mg/kg, po or 1 mg/kg, iv; assay type: ADME, organism-based; conditions: in vivo
[9] = Metabolic stability in human hepatocytes assessed as half life measured upto 120 mins; assay type: ADME, cell-based, Hepatocyte
[10] = Metabolic stability in human hepatocytes assessed as intrinsic clearance; assay type: ADME, cell-based, Hepatocyte
[11] = Clearance in mouse at 10 mg/kg, po or 1 mg/kg, iv; assay type: ADME, organism-based; conditions: in vivo
[12] = Metabolic stability in mouse hepatocytes assessed as half life measured upto 120 mins; assay type: ADME, cell-based, Hepatocyte
[13] = Metabolic stability in mouse hepatocytes assessed as intrinsic clearance; assay type: ADME, cell-based, Hepatocyte
[14] = Half life in mouse at 10 mg/kg, po; assay type: ADME, organism-based; conditions: in vivo
[15] = Half life in mouse at 1 mg/kg, iv; assay type: ADME, organism-based; conditions: in vivo
[16] = Unbound Cmax in mouse at 10 mg/kg, po or 1 mg/kg, iv; assay type: ADME, organism-based; conditions: in vivo
[17] = Bioavailability in mouse at 10 mg/kg, po or 1 mg/kg, iv; assay type: ADME, organism-based; conditions: in vivo
[18] = Unbound brain to plasma partition coefficient in mouse at 10 mg/kg, po or 1 mg/kg, iv after 8 hrs; assay type: ADME, organism-based; conditions: read-out: K(p,uu,brain)

Sequence of Voltage-gated inwardly rectifying potassium channel KCNH2 (Q12809 whole entry): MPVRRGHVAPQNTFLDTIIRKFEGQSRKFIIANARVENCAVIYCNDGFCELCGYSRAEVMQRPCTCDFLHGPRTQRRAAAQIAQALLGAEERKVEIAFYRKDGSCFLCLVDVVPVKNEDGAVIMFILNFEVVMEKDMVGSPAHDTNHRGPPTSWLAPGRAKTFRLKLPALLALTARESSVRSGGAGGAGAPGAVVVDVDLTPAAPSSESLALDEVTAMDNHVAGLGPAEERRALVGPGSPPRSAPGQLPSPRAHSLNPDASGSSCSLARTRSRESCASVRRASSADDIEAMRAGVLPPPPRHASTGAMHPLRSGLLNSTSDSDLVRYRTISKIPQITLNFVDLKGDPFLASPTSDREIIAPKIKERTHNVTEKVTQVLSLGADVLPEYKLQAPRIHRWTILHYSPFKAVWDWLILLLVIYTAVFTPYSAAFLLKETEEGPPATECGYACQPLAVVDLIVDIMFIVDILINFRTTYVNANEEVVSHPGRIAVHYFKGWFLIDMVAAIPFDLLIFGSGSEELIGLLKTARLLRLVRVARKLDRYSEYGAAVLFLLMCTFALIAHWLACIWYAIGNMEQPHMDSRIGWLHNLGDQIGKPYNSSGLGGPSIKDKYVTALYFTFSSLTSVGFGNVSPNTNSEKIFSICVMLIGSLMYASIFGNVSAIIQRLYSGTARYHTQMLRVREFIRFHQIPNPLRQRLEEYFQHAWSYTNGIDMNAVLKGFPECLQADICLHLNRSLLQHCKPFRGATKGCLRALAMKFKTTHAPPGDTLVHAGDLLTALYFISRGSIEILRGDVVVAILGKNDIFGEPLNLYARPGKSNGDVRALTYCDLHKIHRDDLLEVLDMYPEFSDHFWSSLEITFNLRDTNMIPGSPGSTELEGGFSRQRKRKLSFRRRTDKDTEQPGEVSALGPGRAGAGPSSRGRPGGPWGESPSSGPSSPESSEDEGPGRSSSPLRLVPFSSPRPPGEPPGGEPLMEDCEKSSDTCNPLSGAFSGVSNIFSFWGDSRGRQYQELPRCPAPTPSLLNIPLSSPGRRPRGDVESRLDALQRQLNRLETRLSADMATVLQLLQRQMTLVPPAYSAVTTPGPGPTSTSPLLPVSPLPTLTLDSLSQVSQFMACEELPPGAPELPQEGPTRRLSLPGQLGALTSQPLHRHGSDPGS

For `Fc1ccc([C@H]2c3ccccc3CCN2C2=NC[C@H]3NCC[C@H]3O2)cc1`, the EC50 [1] was 423 nM.
`Fc1ccc([C@H]2c3ccccc3CCN2C2=NC[C@@H]3CNCC[C@@H]3O2)cc1` gave an EC50 [1] of 57 nM, a fraction unbound [2] of 0.375 and an IC50 [3] of 21000 nM. For the same compound, the fraction unbound [4] was 0.009, the fraction unbound [5] was 0.253 and the Papp A→B [6] was 1.4 ×10⁻⁶ cm/s. For the same compound, the efflux ratio [7] was 9.04.
With `OCCCN1CC[C@@]2(CN=C(N3CCc4ccccc4[C@@H]3c3ccc(F)cc3)O2)C1` the EC50 [1] was 181 nM and the IC50 [3] was 4800 nM.
For `Fc1ccc([C@H]2c3ccccc3CCN2C2=NC[C@@H]([C@H]3CCNC3)O2)cc1`, the EC50 [1] was 244 nM and the IC50 [3] was 3900 nM.
In the case of `Fc1ccc([C@H]2c3ccccc3CCN2C2=N[C@]3(CCCNC3)CO2)cc1`, the EC50 [1] is reported as 85 nM.
For `Fc1ccc([C@H]2c3ccccc3CCN2C2=NC[C@H]3CNCC[C@@H]3O2)cc1`, the EC50 [1] was 1550 nM.
Compound `N[C@H]1C[C@@]2(COC(N3CCc4ccccc4[C@@H]3c3ccc(F)cc3)=N2)C1` has an EC50 [1] of 639 nM.
In the case of `Fc1ccc([C@H]2c3ccccc3CCN2C2=N[C@H](C3(F)CNC3)CO2)cc1`, the Vdss [8] is reported as 15.2 L/kg, the half-life [9] is reported as > 2 h and the EC50 [1] is reported as 83 nM. For the same compound, the CLH [10] was < 14.7 µL/min/mg, the CL [11] was 34.7 mL/min/kg and the half-life [12] was > 2 h. The fraction unbound [2] was 0.055, the CLH [13] was < 68.2 µL/min/mg and the IC50 [3] was 3100 nM. The fraction unbound [4] was 0.009, the fraction unbound [5] was 0.031 and the half-life [14] was 4.8 h. The half-life [15] was 7.4 h, the fCmax [16] was 62 nM and the bioavailability [17] was 99%. For the same compound, the Papp A→B [6] was 0.53 ×10⁻⁶ cm/s, the efflux ratio [7] was 1.11 and the Kp uu at 8 h [18] was 2.91.
`Fc1ccc([C@H]2c3ccccc3CCN2C2=NC[C@H](C3(F)CNC3)O2)cc1` gave an EC50 [1] of 192 nM and an IC50 [3] of 11000 nM.
Compound `CN1CCC2(CC1)COC(N1CCc3ccccc3[C@@H]1c1ccc(F)cc1)=N2` has an EC50 [1] of 7030 nM.
In the case of `Fc1ccc([C@H]2c3ccccc3CCN2C2=NC[C@H](C3CNC3)O2)cc1`, the EC50 [1] is reported as 109 nM and the IC50 [3] is reported as 2200 nM.
Work on `Fc1ccc([C@H]2c3ccccc3CCN2C2=NC[C@@H](C3CN4CCC3CC4)O2)cc1` (stereo partly drawn) yielded a Vdss [8] of 38.8 L/kg, a half-life [9] of 0.242 h and an EC50 [1] of 218 nM. For the same compound, the CLH [10] was 47.79 µL/min/mg, the CL [11] was 156 mL/min/kg and the half-life [12] was 0.0785 h. For the same compound, the fraction unbound [2] was 0.141, the CLH [13] was 147.03 µL/min/mg and the IC50 [3] was 690 nM. The fraction unbound [4] was 0.02, the fraction unbound [5] was 0.056 and the half-life [14] was 11.4 h. It also gave a half-life [15] of 4.17 h, a fCmax [16] of 6 nM and a bioavailability [17] of 25%. For the same compound, the Papp A→B [6] was 3.07 ×10⁻⁶ cm/s, the efflux ratio [7] was 2.12 and the Kp uu at 8 h [18] was 2.7.
Work on `Fc1ccc([C@H]2c3ccccc3CCN2C2=NC[C@@H]3CNC[C@@H]3O2)cc1` yielded an EC50 [1] of 950 nM.
For `Fc1ccc([C@H]2c3ccccc3CCN2C2=NC[C@H]3CNC[C@H]3O2)cc1`, the EC50 [1] was 111 nM and the IC50 [3] was 5100 nM.
In the case of `Fc1ccc([C@H]2c3ccccc3CCN2C2=NC[C@@]3(CCNC3)O2)cc1`, the Vdss [8] is reported as 57.2 L/kg, the half-life [9] is reported as > 2 h and the EC50 [1] is reported as 38 nM. For the same compound, the CLH [10] was < 14.7 µL/min/mg, the CL [11] was 49.8 mL/min/kg and the half-life [12] was > 2 h. For the same compound, the CLH [13] was < 68.2 µL/min/mg, the IC50 [3] was 4800 nM and the fraction unbound [4] was 0.041. The half-life [14] was 11.9 h, the half-life [15] was 15.6 h and the bioavailability [17] was 74%. For the same compound, the Papp A→B [6] was 3 ×10⁻⁶ cm/s and the efflux ratio [7] was 3.09.
In the case of `Fc1ccc([C@H]2c3ccccc3CCN2C2=NC[C@@H]3CNCC[C@H]3O2)cc1`, the EC50 [1] is reported as 35 nM and the IC50 [3] is reported as 3100 nM.
Work on `Fc1ccc([C@H]2c3ccccc3CCN2C2=NC[C@H](C3CN4CCC3CC4)O2)cc1` (stereo partly drawn) yielded an EC50 [1] of 387 nM and an IC50 [3] of 680 nM.
Work on `CN(C)[C@H]1C[C@]2(CN=C(N3CCc4ccccc4[C@@H]3c3ccc(F)cc3)O2)C1` yielded an EC50 [1] of 3580 nM.
`OCCN1CC[C@@H]2OC(N3CCc4ccccc4[C@@H]3c3ccc(F)cc3)=NC[C@@H]2C1` showed an EC50 [1] of 37 nM.
`Fc1ccc([C@H]2c3ccccc3CCN2C2=N[C@@H]3CNC[C@@H]3O2)cc1` gave an EC50 [1] of 674 nM.
Work on `Fc1ccc([C@H]2c3ccccc3CCN2C2=N[C@@]3(CCCNC3)CO2)cc1` yielded an EC50 [1] of 38 nM.
`Fc1ccc([C@H]2c3ccccc3CCN2C2=NC[C@@H]([C@@H]3CCNC3)O2)cc1` gave an EC50 [1] of 55 nM and an IC50 [3] of 5400 nM.
With `Fc1ccc([C@H]2c3ccccc3CCN2C2=NC[C@H]([C@H]3CCNC3)O2)cc1` the EC50 [1] was 85 nM and the IC50 [3] was 2300 nM.
Compound `NC[C@H]1C[C@]2(CN=C(N3CCc4ccccc4[C@@H]3c3ccc(F)cc3)O2)C1` has an EC50 [1] of 206 nM.
`OCCN1CC[C@H]2OC(N3CCc4ccccc4[C@@H]3c3ccc(F)cc3)=NC[C@H]2C1` showed an EC50 [1] of 230 nM.
`N[C@H]1CC[C@@]2(COC(N3CCc4ccccc4[C@@H]3c3ccc(F)cc3)=N2)C1` showed an EC50 [1] of 204 nM.
`CN1CCCC2(COC(N3CCc4ccccc4[C@@H]3c3ccc(F)cc3)=N2)C1` (stereo partly drawn) gave an EC50 [1] of 796 nM.
With `OCCN1CC[C@@]2(CN=C(N3CCc4ccccc4[C@@H]3c3ccc(F)cc3)O2)C1` the Vdss [8] was 18.5 L/kg, the half-life [9] was > 2 h and the EC50 [1] was 318 nM. For the same compound, the CLH [10] was < 14.7 µL/min/mg, the CL [11] was 129 mL/min/kg and the half-life [12] was 0.517 h. It also gave a fraction unbound [2] of 0.151, a CLH [13] of 22.25 µL/min/mg and an IC50 [3] of 4400 nM. The fraction unbound [4] was 0.042, the fraction unbound [5] was 0.091 and the half-life [14] was 3.3 h. The half-life [15] was 2.1 h, the fCmax [16] was 8 nM and the bioavailability [17] was 6.1%. For the same compound, the Papp A→B [6] was 2.2 ×10⁻⁶ cm/s, the efflux ratio [7] was 1.52 and the Kp uu at 8 h [18] was 3.84.
`Fc1ccc([C@H]2c3ccccc3CCN2C2=NC3(CCNCC3)CO2)cc1` gave an EC50 [1] of 157 nM.
